This assay concerns the target Human TRPA1 (Homo sapiens, UniProt O75762). The assay can be described thus: Assay 1: In vitro cellular testing of TRPA1 modulation (CHO-TREx, Fluo-3 calcium fluorescence, AITC agonist). Type of assay: cell-based. The arrangement: expressed in transfected cells; host or cells: CHO-TREx cells (Invitrogen), vector pcDNA4/TO. As to conditions: CHO-TREx cells expressing human TRPA1; Fluo-3 fluorescence (FLIPR/Tetra); agonist 15 μM allyl isothiocyanate (AITC); 30 minute antagonist incubation. The method in brief:
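Tetracycline-induced CHO-TREx cells stably expressing human TRPA1, loaded with 4 μM Fluo-3 AM, preincubated 30 min with compound (serial dilution typically from 10 μM, three-fold steps) in HEPES saline pH 7.4. Fluorescence change over 3 min after 15 μM AITC; IC50 from Hill fit versus no-antagonist and 10 μM ruthenium red controls.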
Chain of Human TRPA1 (O75762 whole entry): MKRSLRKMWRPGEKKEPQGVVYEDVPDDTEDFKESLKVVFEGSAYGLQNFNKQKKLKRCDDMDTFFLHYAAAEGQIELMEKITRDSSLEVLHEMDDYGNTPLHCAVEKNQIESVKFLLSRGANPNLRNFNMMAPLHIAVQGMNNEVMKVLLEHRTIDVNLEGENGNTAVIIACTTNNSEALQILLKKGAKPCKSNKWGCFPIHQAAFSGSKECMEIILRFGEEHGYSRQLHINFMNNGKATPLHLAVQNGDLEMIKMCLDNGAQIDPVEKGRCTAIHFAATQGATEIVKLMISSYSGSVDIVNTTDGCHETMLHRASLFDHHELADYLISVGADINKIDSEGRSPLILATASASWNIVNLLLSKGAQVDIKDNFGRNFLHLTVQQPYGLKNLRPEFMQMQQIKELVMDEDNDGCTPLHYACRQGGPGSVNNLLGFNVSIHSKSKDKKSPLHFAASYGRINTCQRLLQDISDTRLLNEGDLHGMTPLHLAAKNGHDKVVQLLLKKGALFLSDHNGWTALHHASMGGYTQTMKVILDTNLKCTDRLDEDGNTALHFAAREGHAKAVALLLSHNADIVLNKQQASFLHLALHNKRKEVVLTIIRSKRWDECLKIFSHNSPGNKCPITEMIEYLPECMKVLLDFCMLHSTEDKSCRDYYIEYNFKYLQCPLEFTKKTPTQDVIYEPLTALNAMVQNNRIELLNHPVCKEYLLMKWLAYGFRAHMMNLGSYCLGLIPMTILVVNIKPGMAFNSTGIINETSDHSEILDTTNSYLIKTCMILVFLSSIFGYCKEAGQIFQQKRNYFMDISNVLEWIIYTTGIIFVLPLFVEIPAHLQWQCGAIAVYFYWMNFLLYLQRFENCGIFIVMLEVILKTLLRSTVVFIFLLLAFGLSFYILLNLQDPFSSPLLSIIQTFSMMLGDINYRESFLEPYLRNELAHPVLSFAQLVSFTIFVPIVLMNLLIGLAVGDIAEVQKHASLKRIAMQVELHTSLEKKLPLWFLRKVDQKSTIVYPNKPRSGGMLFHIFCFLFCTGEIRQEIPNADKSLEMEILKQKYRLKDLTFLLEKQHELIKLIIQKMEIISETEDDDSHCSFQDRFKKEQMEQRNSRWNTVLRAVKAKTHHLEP
Broadly, the IC50 is the concentration needed to halve the response being measured. On to `O=C(NCc1cc(-c2ccc(C(F)(F)F)cc2)nc(N2CCN(Cc3cccnc3)CC2)c1)[C@@H]1CCCN1S(=O)(=O)c1ccc(Cl)s1` [Example 341, 1-[(5-Chlorothiophen-2-yl)sulfonyl]-N-({2-[4-(pyridin-3-ylmethyl)piperazin-1-yl]-6-[4-(trifluoromethyl)phenyl]pyridin-4-yl}methyl)-L-prolinamide], for which the IC50 turned out to be 693 nM.

Regarding `O=C(NCc1cc(NCc2ccncc2)nc(-c2ccc(C(F)(F)F)cc2)c1)[C@@H]1CC(F)(F)CN1S(=O)(=O)c1ccc(F)cc1` [Example 343, 4,4-Difluoro-1-[(4-fluorophenyl)sulfonyl]-N-({2-[(pyridin-4-ylmethyl)amino]-6-[4-(trifluoromethyl)phenyl]pyridin-4-yl}methyl)-L-prolinamide], the IC50 was 1060 nM.

As to `O=C(NCc1cc(-c2ccc(C(F)(F)F)cc2)ncn1)[C@@H]1CCCN1S(=O)(=O)c1ccc(Br)cc1` [Example 147, 1-(4-Bromobenzenesulfonyl)-pyrrolidine-2S-carboxylic acid [6-(4-trifluoromethylphenyl)-pyrimidin-4-ylmethyl]-amide], the IC50 turned out to be 92 nM. For the compound `CC(=O)N(C)C1CCN(c2nc(CNC(=O)[C@@H]3CCCN3S(=O)(=O)c3ccc(Cl)s3)cc(-c3ccc(C(F)(F)F)cc3)n2)C1` (stereo partly drawn) [Example 53, 1-(5-Chloro-thiophene-2-sulfonyl)-pyrrolidine-2S-carboxylic acid [2-[3-(acetyl-methyl-amino)-pyrrolidin-1-yl]-6-(4-trifluoromethyl-phenyl)-pyrimidin-4-ylmethyl]-amide], the 50% inhibitory concentration (IC50) stood at 426 nM. Regarding `O=C(NCc1cc(NCc2cccnc2)nc(-c2ccc(C(F)(F)F)cc2)c1)[C@@H]1CCCN1S(=O)(=O)c1ccc(F)cc1` [Example 395, 1-[(4-Fluorophenyl)sulfonyl]-N-({2-[(pyridin-3-ylmethyl)amino]-6-[4-(trifluoromethyl)phenyl]pyridin-4-yl}methyl)-L-prolinamide], the half-inhibitory concentration (IC50) was found to be 2980 nM. On to `O=C(NCc1cc(-c2ccc(C(F)(F)F)cc2)nc(N2CCNCC2)n1)[C@@H]1CCCN1S(=O)(=O)c1ccc(F)cc1` [Example 23, 1-(4-Fluoro-benzenesulfonyl)-pyrrolidine-2S-carboxylic acid [2-piperazin-1-yl-6-(4-trifluoromethyl-phenyl)-pyrimidin-4-ylmethyl]-amide], for which the half-maximal inhibitory concentration (IC50) amounted to 4420 nM. With `O=C(NCc1cc(-c2ccc(C(F)(F)F)cc2)ccn1)[C@@H]1CCCN1S(=O)(=O)c1ccc(Cl)s1` [Example 136, 1-(5-Chloro-thiophene-2-sulfonyl)-pyrrolidine-2S-carboxylic acid [4-(4-trifluoromethyl-phenyl)-pyridin-2-ylmethyl]-amide] the figure was 35 nM. With `O=C(NCc1cc(NCc2ccccn2)nc(-c2ccc(C(F)(F)F)cc2)c1)[C@@H]1C=CCN1S(=O)(=O)c1ccc(Cl)s1` [Example 330, (2S)-1-[(5-Chlorothiophen-2-yl)sulfonyl]-N-({2-[(pyridin-2-ylmethyl)amino]-6-[4-(trifluoromethyl)phenyl]pyridin-4-yl}methyl)-2,5-dihydro-1H-pyrrole-2-carboxamide] the figure was 604 nM; with `O=C(NCc1cccc(-c2ccc(OC(F)(F)F)c(F)c2)c1)[C@@H]1CCCN1S(=O)(=O)c1ccc(F)cc1` [Example 73, 1-(4-Fluorobenzenesulfonyl)-pyrrolidine-2S-carboxylic acid (3′-fluoro-4′-trifluoromethoxybiphenyl-3-ylmethyl)-amide], 4 nM; with `COc1ccc(S(=O)(=O)N2CCC[C@H]2C(=O)NCc2cc(-c3ccc(C(F)(F)F)cc3)ncn2)cc1` [Example 150, 1-(4-Methoxybenzenesulfonyl)-pyrrolidine-2S-carboxylic acid [6-(4-trifluoromethylphenyl)-pyrimidin-4-ylmethyl]-amide], 383 nM. The value for `O=C(NCc1cc(-c2ccc(C(F)(F)F)cc2)nc(OCCN2CCOCC2)n1)[C@@H]1CCCN1S(=O)(=O)c1ccc(Cl)s1` [Example 64, 1-(5-Chloro-thiophene-2-sulfonyl)-pyrrolidine-2S-carboxylic acid [2-(2-morpholin-4-yl-ethoxy)-6-(4-trifluoromethyl-phenyl)-pyrimidin-4-ylmethyl]-amide] was 234 nM.

In the case of `O=C(NCc1cc(-c2ccc(C(F)(F)F)cc2)nc(N2CCN(Cc3ccncc3)CC2)n1)[C@@H]1CCCN1S(=O)(=O)c1ccc(F)cc1` [Example 21, 1-(4-Fluoro-benzenesulfonyl)-pyrrolidine-2S-carboxylic acid [2-(4-pyridin-4-ylmethyl-piperazin-1-yl)-6-(4-trifluoromethyl-phenyl)-pyrimidin-4-ylmethyl]-amide], the IC50 was determined as 24 nM.

Turning to `O=C(NCc1cc(-c2ccc(C(F)(F)F)cc2)ncn1)[C@@H]1CCCN1S(=O)(=O)c1cc(F)cc(F)c1` [Example 169, 1-(3,5-Difluorobenzenesulfonyl)-pyrrolidine-2S-carboxylic acid [6-(4-trifluoromethylphenyl)-pyrimidin-4-ylmethyl]-amide], the IC50 came out at 51 nM. Consider `O=C(NCc1cccc(-c2ccc(C(F)(F)F)cc2)c1)[C@@H]1CC(F)(F)CN1S(=O)(=O)c1ccc(F)cc1` [Example 119, (2S)-4,4-Difluoro-1-(4-fluoro-benzenesulfonyl)-pyrrolidine-2-carboxylic acid (4′-trifluoromethyl-biphenyl-3-ylmethyl)-amide], for which the IC50 was 47 nM. The value for `CC1CCCN1c1cc(CNC(=O)[C@@H]2CCCN2S(=O)(=O)c2ccc(F)cc2)cc(-c2ccc(C(F)(F)F)cc2)n1` (stereo partly drawn) [Example 336, 1-[(4-Fluorophenyl)sulfonyl]-N-({2-(2-methylpyrrolidin-1-yl)-6-[4-(trifluoromethyl)phenyl]pyridin-4-yl}methyl)-L-prolinamide] was 113 nM; that for `CNc1nc(CNC(=O)[C@@H]2CCCN2S(=O)(=O)c2ccc(Cl)s2)cc(-c2ccc(C(F)(F)F)cc2)n1` [Example 28, 1-(5-Chloro-thiophene-2-sulfonyl)-pyrrolidine-2S-carboxylic acid [2-methylamino-6-(4-trifluoromethyl-phenyl)-pyrimidin-4-ylmethyl]-amide] was 81 nM; that for `O=C(NCc1cc(-c2ccc(C(F)(F)F)cc2)nc(N2CCN(Cc3ccccn3)CC2)n1)[C@@H]1CCCN1S(=O)(=O)c1ccc(F)cc1` [Example 22, 1-(4-Fluoro-benzenesulfonyl)-pyrrolidine-2S-carboxylic acid [2-(4-pyridin-2-ylmethyl-piperazin-1-yl)-6-(4-trifluoromethyl-phenyl)-pyrimidin-4-ylmethyl]-amide] was 130 nM. With `O=C(NCc1cc(-c2ccc(C(F)(F)F)cc2)nc(N2CCN(Cc3ccncc3)CC2)c1)[C@@H]1CCCN1S(=O)(=O)c1ccc(Cl)s1` [Example 327, 1-[(5-Chlorothiophen-2-yl)sulfonyl]-N-({2-[4-(pyridin-4-ylmethyl)piperazin-1-yl]-6-[4-(trifluoromethyl)phenyl]pyridin-4-yl}methyl)-L-prolinamide] the figure was 587 nM; with `C[C@@H]1CCCN1c1nc(CNC(=O)[C@@H]2CCCN2S(=O)(=O)c2ccc(Cl)s2)cc(-c2ccc(C(F)(F)F)cc2)n1` [Example 30, 1-(5-Chloro-thiophene-2-sulfonyl)-pyrrolidine-2(S)-carboxylic acid [2-(2R-methyl-pyrrolidin-1-yl)-6-(4-trifluoromethyl-phenyl)-pyrimidin-4-ylmethyl]-amide], 13 nM.
